In experiment [1] the test system is influenza A virus (A/PR/8/34). The experiment is described as follows: microbe, parasite or virus in culture. The experiment is classed as cell-based. Particulars: Influenza A virus, PR/8, MDCK, read-out: IC50 (mean all).
For experiment [2], the system named is A/PR/8/34 influenza virus. The experiment is described as follows: microbe, parasite or virus in culture. It is filed as cell-based.
Where [3] appears, read: MDCK cells infected with A/PR/8/34, cell protection (CPE).
Where [4] appears, read: Influenza A virus, PR/8, MDCK, MDCK cells infected with A/PR/8/34, bDNA viral RNA; read-out: EC50 (mean all).
Where [5] appears, read: Influenza A virus, PR/8, MDCK; read-out: EC50 (mean all).

From patent publication US8829007B2 (priority 2009, dated 2014) come the findings set out here.

Where two headings read alike, the source gives them in different places.

With `O=S(=O)(c1cccc(Br)c1)N1CCC[C@H](CNc2nc(-c3c[nH]c4ncc(Cl)cc34)ncc2F)C1` [Compound 67, (R)—N-((1-(3-bromophenylsulfonyl)piperidin-3-yl)methyl)-2-(5-chloro-1H-pyrrolo[2,3-b]pyridin-3-yl)-5-fluoropyrimidin-4-amine], in experiment [1] (setting [3]), the IC50 is < 5 µM. Further, in experiment [2] (setting [4]), the EC50 is < 5 µM.

In the case of `O=C(Oc1ccccc1)N1CCC[C@H](CNc2nc(-c3c[nH]c4ncc(Cl)cc34)ncc2F)C1` [Compound 68, (R)-phenyl 3-((2-(5-chloro-1H-pyrrolo[2,3-b]pyridin-3-yl)-5-fluoropyrimidin-4-ylamino)methyl)piperidine-1-carboxylate], the IC50 in experiment [1] is 5 to 20 µM. In addition, the EC50 in experiment [2] (setting [5]) is < 5 µM.

`COc1ccccc1OC(=O)N1CCC[C@H](CNc2nc(-c3c[nH]c4ncc(Cl)cc34)ncc2F)C1` [Compound 69, (R)-2-methoxyphenyl 3-((2-(5-chloro-1H-pyrrolo[2,3-b]pyridin-3-yl)-5-fluoropyrimidin-4-ylamino)methyl)piperidine-1-carboxylate]: in experiment [1], the IC50 is < 5 µM. Besides, the EC50 in experiment [2] (setting [5]) was < 5 µM.

Regarding `O=C(Oc1ccccc1Cl)N1CCC[C@H](CNc2nc(-c3c[nH]c4ncc(Cl)cc34)ncc2F)C1` [Compound 70, (R)-2-chlorophenyl 3-((2-(5-chloro-1H-pyrrolo[2,3-b]pyridin-3-yl)-5-fluoropyrimidin-4-ylamino)methyl)piperidine-1-carboxylate], the IC50 in experiment [1] was < 5 µM. For the same compound, in experiment [2] (setting [5]), the EC50 is < 5 µM.

Take `C=C(C)OC(=O)N1CCC[C@H](CNc2nc(-c3c[nH]c4ncc(Cl)cc34)ncc2F)C1` [Compound 74, (R)-prop-1-en-2-yl 3-((2-(5-chloro-1H-pyrrolo[2,3-b]pyridin-3-yl)-5-fluoropyrimidin-4-ylamino)methyl)piperidine-1-carboxylate]: the IC50 in experiment [1] was < 5 µM. In addition, the EC50 in experiment [2] (Influenza A virus, PR/8, MDCK, read-out: EC50 (mean all)) is < 5 µM.

Take `O=C(Nc1cccc(F)c1)N1CCC[C@H](CNc2nc(-c3c[nH]c4ncc(Cl)cc34)ncc2F)C1` [Compound 75, (R)-3-((2-(5-chloro-1H-pyrrolo[2,3-b]pyridin-3-yl)-5-fluoropyrimidin-4-ylamino)methyl)-N-(3-fluorophenyl)piperidine-1-carboxamide]: the IC50 in experiment [1] (setting [3]) was < 5 µM. The EC50 in experiment [2] (setting [4]) was < 5 µM.

As to `COc1cccc(NC(=O)N2CCC[C@H](CNc3nc(-c4c[nH]c5ncc(Cl)cc45)ncc3F)C2)c1` [Compound 76, (R)-3-((2-(5-chloro-1H-pyrrolo[2,3-b]pyridin-3-yl)-5-fluoropyrimidin-4-ylamino)methyl)-N-(3-methoxyphenyl)piperidine-1-carboxamide], the IC50 in experiment [1] (setting [3]) was < 5 µM. In addition, in experiment [2] (setting [4]), the EC50 was < 5 µM.

With `Cc1cccc(NC(=O)N2CCC[C@H](CNc3nc(-c4c[nH]c5ncc(Cl)cc45)ncc3F)C2)c1` [Compound 78, (R)-3-((2-(5-chloro-1H-pyrrolo[2,3-b]pyridin-3-yl)-5-fluoropyrimidin-4-ylamino)methyl)-N-m-tolylpiperidine-1-carboxamide], the IC50 in experiment [1] (setting [3]) is < 5 µM. Moreover, the EC50 in experiment [2] (setting [4]) was < 5 µM.

Regarding `CC(C)(CC(=O)O)CC(=O)N1CCC[C@H](CNc2nc(-c3c[nH]c4ncc(Cl)cc34)ncc2F)C1` [Compound 80, (R)-5-(3-((2-(5-chloro-1H-pyrrolo[2,3-b]pyridin-3-yl)-5-fluoropyrimidin-4-ylamino)methyl)piperidin-1-yl)-3,3-dimethyl-5-oxopentanoic acid], in experiment [1] (setting [3]), the IC50 was < 5 µM. Further, the EC50 in experiment [2] (setting [4]) was < 5 µM.

As for `O=C(O)CC1(CC(=O)N2CCC[C@H](CNc3nc(-c4c[nH]c5ncc(Cl)cc45)ncc3F)C2)CCCC1` [Compound 81, (R)-2-(1-(2-(3-((2-(5-chloro-1H-pyrrolo[2,3-b]pyridin-3-yl)-5-fluoropyrimidin-4-ylamino)methyl)piperidin-1-yl)-2-oxoethyl)cyclopentyl)ethanoic acid], the IC50 in experiment [1] (setting [3]) was < 5 µM. Moreover, the EC50 in experiment [2] (setting [4]) was < 5 µM.

In the case of `O=C(c1ccccc1Cl)N1CCC[C@H](CNc2nc(-c3c[nH]c4ncc(Cl)cc34)ncc2F)C1` [Compound 84, (R)-(3-((2-(5-chloro-1H-pyrrolo[2,3-b]pyridin-3-yl)-5-fluoropyrimidin-4-ylamino)methyl)piperidin-1-yl)(2-chlorophenyl)methanone], the IC50 in experiment [1] (setting [3]) was < 5 µM. In experiment [2] (setting [4]), the EC50 was < 5 µM.

Regarding `O=C(c1ccc(F)c(F)c1)N1CCC[C@H](CNc2nc(-c3c[nH]c4ncc(Cl)cc34)ncc2F)C1` [Compound 85, (R)-(3-((2-(5-chloro-1H-pyrrolo[2,3-b]pyridin-3-yl)-5-fluoropyrimidin-4-ylamino)methyl)piperidin-1-yl)(3,4-difluorophenyl)methanone], the IC50 in experiment [1] (setting [3]) lay in the range of 5 to 20 µM. In addition, in experiment [2] (setting [4]), the concentration for a half-maximal effect (EC50) was < 5 µM.

Turning to `O=C(c1cc(F)cc(F)c1)N1CCC[C@H](CNc2nc(-c3c[nH]c4ncc(Cl)cc34)ncc2F)C1` [Compound 86, (R)-(3-((2-(5-chloro-1H-pyrrolo[2,3-b]pyridin-3-yl)-5-fluoropyrimidin-4-ylamino)methyl)piperidin-1-yl)(3,5-difluorophenyl)methanone], in experiment [1] (setting [3]), the IC50 is < 5 µM. The EC50 in experiment [2] (setting [4]) was < 5 µM.

On to `O=S(=O)(c1ccccc1)N1CCC[C@H](CNc2nc(-c3c[nH]c4ncc(Cl)cc34)ncc2F)C1` [Compound 87, (R)-2-(5-chloro-1H-pyrrolo[2,3-b]pyridin-3-yl)-5-fluoro-N-((1-(phenylsulfonyl)piperidin-3-yl)methyl)pyrimidin-4-amine], for which the IC50 in experiment [1] (setting [3]) was < 5 µM. In addition, in experiment [2] (setting [4]), the EC50 is < 5 µM.

`O=S(=O)(c1cccs1)N1CCCC(CNc2nc(-c3c[nH]c4ncc(Cl)cc34)ncc2F)C1` (stereo not shown) [Compound 89]: in experiment [1] (setting [3]), the IC50 was < 5 µM. In addition, the EC50 in experiment [2] (setting [4]) is < 5 µM.

For the compound `O=S(=O)(c1ccccc1F)N1CCC[C@H](CNc2nc(-c3c[nH]c4ncc(Cl)cc34)ncc2F)C1` [Compound 90, (R)-2-(5-chloro-1H-pyrrolo[2,3-b]pyridin-3-yl)-5-fluoro-N-((1-(2-fluorophenylsulfonyl)piperidin-3-yl)methyl)pyrimidin-4-amine], the IC50 in experiment [1] (setting [3]) was < 5 µM. For the same compound, the EC50 in experiment [2] (setting [4]) was < 5 µM.

`Cn1cnc(S(=O)(=O)N2CCC[C@H](CNc3nc(-c4c[nH]c5ncc(Cl)cc45)ncc3F)C2)c1` [Compound 91, (R)-2-(5-chloro-1H-pyrrolo[2,3-b]pyridin-3-yl)-5-fluoro-N-((1-(1-methyl-1H-imidazol-4-ylsulfonyl)piperidin-3-yl)methyl)pyrimidin-4-amine]: in experiment [1] (setting [3]), the IC50 is < 5 µM. Besides, the EC50 in experiment [2] (setting [4]) was < 5 µM.

Turning to `O=C(CCl)N1CCC[C@H](CNc2nc(-c3c[nH]c4ncc(Cl)cc34)ncc2F)C1` [Compound 92, (R)-2-chloro-1-(3-((2-(5-chloro-1H-pyrrolo[2,3-b]pyridin-3-yl)-5-fluoropyrimidin-4-ylamino)methyl)piperidin-1-yl)ethanone], the IC50 in experiment [1] (setting [3]) is < 5 µM. Also, in experiment [2] (setting [4]), the EC50 is < 5 µM.

In the case of `CC(Cl)C(=O)N1CCC[C@H](CNc2nc(-c3c[nH]c4ncc(Cl)cc34)ncc2F)C1` (stereo partly drawn) [Compound 93, 2-chloro-1-((R)-3-((2-(5-chloro-1H-pyrrolo[2,3-b]pyridin-3-yl)-5-fluoropyrimidin-4-ylamino)methyl)piperidin-1-yl)propan-1-one], the IC50 in experiment [1] (setting [3]) was < 5 µM. The concentration giving a half-maximal response (EC50) in experiment [2] (setting [4]) was < 5 µM.

As for `O=C(COc1ccccc1)N1CCC[C@H](CNc2nc(-c3c[nH]c4ncc(Cl)cc34)ncc2F)C1` [Compound 94, (R)-1-(3-((2-(5-chloro-1H-pyrrolo[2,3-b]pyridin-3-yl)-5-fluoropyrimidin-4-ylamino)methyl)piperidin-1-yl)-2-phenoxyethanone], in experiment [1] (setting [3]), the IC50 is < 5 µM. Also, in experiment [2] (setting [4]), the EC50 is < 5 µM.

In the case of `O=C(C1CCCCC1)N1CCC[C@H](CNc2nc(-c3c[nH]c4ncc(Cl)cc34)ncc2F)C1` [Compound 95, (R)-(3-((2-(5-chloro-1H-pyrrolo[2,3-b]pyridin-3-yl)-5-fluoropyrimidin-4-ylamino)methyl)piperidin-1-yl)(cyclohexyl)methanone], in experiment [1] (setting [3]), the IC50 is < 5 µM. The EC50 in experiment [2] (setting [4]) was < 5 µM.

`O=C(c1cccs1)N1CCC[C@H](CNc2nc(-c3c[nH]c4ncc(Cl)cc34)ncc2F)C1` [Compound 97, (R)-(3-((2-(5-chloro-1H-pyrrolo[2,3-b]pyridin-3-yl)-5-fluoropyrimidin-4-ylamino)methyl)piperidin-1-yl)(thiophen-2-yl)methanone]: the IC50 in experiment [1] (setting [3]) was < 5 µM. For the same compound, the EC50 in experiment [2] (setting [4]) was < 5 µM.

For `O=C(Cc1ccc(F)cc1)N1CCC[C@H](CNc2nc(-c3c[nH]c4ncc(Cl)cc34)ncc2F)C1` [Compound 98, (R)-1-(3-((2-(5-chloro-1H-pyrrolo[2,3-b]pyridin-3-yl)-5-fluoropyrimidin-4-ylamino)methyl)piperidin-1-yl)-2-(4-fluorophenyl)ethanone], the IC50 in experiment [1] (setting [3]) was < 5 µM. Further, the EC50 in experiment [2] (setting [4]) was < 5 µM.

For `O=C(C1CCCC1)N1CCC[C@H](CNc2nc(-c3c[nH]c4ncc(Cl)cc34)ncc2F)C1` [Compound 99, (R)-(3-((2-(5-chloro-1H-pyrrolo[2,3-b]pyridin-3-yl)-5-fluoropyrimidin-4-ylamino)methyl)piperidin-1-yl)(cyclopentyl)methanone], in experiment [1] (setting [3]), the IC50 was < 5 µM. In addition, the concentration giving a half-maximal response (EC50) in experiment [2] (setting [4]) was < 5 µM.

`O=C(CC1CCCC1)N1CCC[C@H](CNc2nc(-c3c[nH]c4ncc(Cl)cc34)ncc2F)C1` [Compound 100, (R)-1-(3-((2-(5-chloro-1H-pyrrolo[2,3-b]pyridin-3-yl)-5-fluoropyrimidin-4-ylamino)methyl)piperidin-1-yl)-2-cyclopentylethanone]: in experiment [1] (setting [3]), the IC50 was < 5 µM. For the same compound, the EC50 in experiment [2] (setting [4]) was < 5 µM.

With `O=C(c1cnccn1)N1CCC[C@H](CNc2nc(-c3c[nH]c4ncc(Cl)cc34)ncc2F)C1` [Compound 101, (R)-(3-((2-(5-chloro-1H-pyrrolo[2,3-b]pyridin-3-yl)-5-fluoropyrimidin-4-ylamino)methyl)piperidin-1-yl)(pyrazin-2-yl)methanone], in experiment [1] (setting [3]), the IC50 is < 5 µM. The EC50 in experiment [2] (setting [4]) is < 5 µM.
